# Measurements: US10662409B2, “Methods of generating neural stem cells” (Trustees of Tufts College, priority 2015, dated 2020)
# B1: FGF8: fibroblast growth factor 8 (Peprotech) added to culture media (protein, UniProt P55075 23-233, looked up)
# Fibroblast growth factor 8: QEGPGRGPALGRELASLFRAGREPQGVSQQHVREQSLVTDQLSRRLIRTYQLYSRTSGKHVQVLANKRINAMAEDGDPFAKLIVETDTFGSRVRVRGAETGLYICMNKKGKLIAKSNGKGKDCVFTEIVLENNYTALQNAKYEGWYMAFTRKGRPRKGSKTRQHQREVHFMKRLPRGHHTTEQSLRFEFLNYPPFTRSLRGSQRTWAPEPR
# Key:
# Assay type in all cases: cell-based, human
# GABA receptors = assay: Electrophysiology of 1-week hiNSC cultures, functionality of GABA receptors; conditions: hiNSCs cultured for one week
# Description: hiNSCs were grown on poly-L-lysine coated coverslips (Corning) in neurobasal media supplemented with 2% B27 (Invitrogen), 1% Glutamax, and 1% antibiotic-antimycotic for 1-8 weeks. Recordings were performed at 34° C. For whole-cell patch clamp experiments, pipettes contained saline (in mM): 130 K-gluconate, 10 KCl, 0.1 CaCl2, 2 Mg-ATP, 1.1 EGTA, and 10 HEPES, pH 7.4 KOH. Bath saline contained the following (in mM): 140 NaCl, 2.5 KCl, 2.5 CaCl2, 1.2 MgCl2, 10 HEPES, and 11 glucose, pH 7.4 NaOH.
# To determine the functionality of GABA receptors, 1-week hiNSC cultures were assessed via known electrophsysiology methods (e.g., voltage ramp) in order to determine the response of neurons resulting from provided hiNSCs both in the presence of muscimol and in its absence.
# hiNSCs [1] = assay: Differentiation of dissociated hiNSCs with retinoic acid added to basal media (immunostaining); conditions: retinoic acid 10-100 μM
# Description: (§1) To encourage spontaneous differentiation, hiNSC colonies were enzymatically removed from MEF feeder layers using TrypLE (Invitrogen), then dissociated as much as possible by manually pipetting. This cell suspension was sometimes further separated into a single cell suspension using a […] cell strainer to remove larger clumps. Dissociated hiNSCs were plated and cultured on multiple substrates including CELLstart (Invitrogen), laminin (Roche) or gelatin in hiNSC basal media without bFGF or in neurobasal media supplemented with 2% B27 (Invitrogen), 1% Glutamax, and 1% antibiotic-antimycotic. hiNSC cells began to show differentiation into BIII-tubulin (TUJ1)-positive immature neurons with visible neurite extensions in as little as 4 days. After two weeks in basal media, hiNSC cells spontaneously differentiated into more mature neuronal and glial subtypes. Adding various amounts of retinoic acid (10-100 μM) caused cells to differentiate into more mature neuronal phenotypes in a shorter amount of time (˜8 days). […] For guided differentiation, Shh (500 ng/ml, Peprotech), FGF8 (500 ng/ml, Peprotech), and RA (R&D) at concentrations between 10-100 μM were used to facilitate neuronal and glial differentiation within shorter culture periods (˜7-8 days). For differentiation studies in undefined media, DMEM supplemented with 10% FBS and 1% antibiotic-antimycotic was used. […]
# [2] = test system: inhibitory GABA receptors; assay: Live Fluo-4AM calcium imaging of hiNSC cultures; conditions: two-week cultures; 200 μM picrotoxin just before imaging
# Description: Cells plated onto coverslips or on 3D scaffolds were immersed in extracellular solution (NaCl 140 mM, KCl 2.8 mM, CaCl2 2 mM, MgCl2 2 mM, HEPES 10 mM, glucose 10 mM, pH=7.4, adjusted with NaOH). Fluo-4 (Invitrogen) calcium sensitive dye was mixed 1:1 with 20% Pluronic F127 (Invitrogen). Next, Fluo-4 was diluted to a final concentration of 1 μM in the extracellular buffer and pre-warmed to 37° C. The Fluo-4 1 μM solution was applied to cells and incubated at 37° C. for 1 hour. Upon incubation, cells were washed with the extracellular buffer to remove any unreacted dye. Cells were imaged using Olympus MVX10 macroscope (12.6× magnification) and Hamamatsu ORCA-Flash4.0 camera. The images were taken with the following setup: 15 ms exposure, 60 ms frame frequency, 512×512 pixel, 4×4 binning, […] over 3 minutes at room temperature. Some samples were treated with 200 μM picrotoxin (Sigma-Aldrich) just before imaging. The movie was created using ImageJ software (NIH).
# hiNSCs [3] = assay: Guided differentiation of hiNSCs into neuronal subtypes with growth factors in Neurobasal media (HB9 / TH immunostaining); conditions: added to Neurobasal media; one week in culture; FGF8 500 ng/ml, Shh 500 ng/ml
# Description: as §1
molecule,measurement,setting,value
NCc1cc(=O)[nH]o1 [muscimol],membrane potential response of hiNSCs to GABA agonist,GABA receptors,depolarizing response
CC1=C(/C=C/C(C)=C/C=C/C(C)=C/C(=O)O)C(C)(C)CCC1 [retinoic acid],time to differentiate into more mature neuronal phenotypes,hiNSCs [1],~8 days
picrotoxin,spontaneous calcium signaling in response to GABA receptor blocker,[2],significantly activated
B1,"staining of tyrosine hydroxylase (TH, marker of dopaminergic neurons)",hiNSCs [3],increase
